This note sets out measurements from US20230120597A1, “CO-AGONISTS AT GLP-1 AND GIP RECEPTORS SUITABLE FOR ORAL DELIVERY” (Novo Nordisk A/S, priority 2020, published 2023).

Marks after values point to notes of the source that are not given here. Starred links: 1 amine or outer side, 2 acyl side, 3 side chain; linkers in the order of their positions; H or OH if unused. Non-standard residues stand in square brackets, D forms with d. Residues, ends and D or L forms follow the SMILES beside them. Groups on a side chain read outwards from the residue. *: point of attachment. C18 diacid = O=C(O)CCCCCCCCCCCCCCCCC(=O)*; γGlu = O=C(O)[C@H](CCC(=O)[*:2])N[*:1]; εLys = N[C@@H](CCCCN[*:1])C(=O)[*:2]; Aib = CC(C)(N)C(=O)O

The data set in a line: Pharmacokinetic study in dogs, oral dosing of tablet compositions with SNAC. The data set is classed as in vivo, Beagle dogs. The conditions noted are these: dog, in vivo, po. The procedure:
The purpose of this example is to determine the half-life and plasma exposure in vivo of the compounds of the present invention after p.o. administration to beagle dogs, i.e. the terminal half-life and concentration of test substance that reaches circulation with time. This is done in a pharmacokinetic (PK) study, where these parameters of the compound in question are determined. By terminal half-life is generally meant the period of time it takes to halve a certain plasma concentration, measured after the initial distribution phase.
The amount of SNAC in the tablet composition was 100-300 mg, the amount of magnesium stearate in the tablet composition was 7.7 mg, and the target amount of each test substance in the tablet composition was 3-4 mg.
Male beagle dogs, 1-7 years of age and weighing 9-17 kg during the study period, were included in the study. The dogs were dosed in a fasting state. The dogs were group housed in pens (12 hours light: 12 hours dark), and fed individually and restrictedly once daily with Royal Canin Medium Adult dog food (Royal Canin Products, China Branch, or Brogaarden A/S, Denmark). The dogs were used for repeated PK studies with a suitable wash-out period between successive dosing. An appropriate acclimatization period was given prior to initiation of the first PK study. All handling, dosing, and blood sampling of the animals were performed by trained and skilled staff. Before the studies, the dogs were fasted overnight and from 0 to 4 hours after dosing. The dogs were restricted to water 1 hour before dosing until 4 hours after dosing, but otherwise had ad libitum access to water during the whole period.
The compositions were administered by a single oral dosing to the dogs in groups of 6-8 dogs. […] The mouth was then closed, and 10 mL of tap water was given by syringe or gavage to facilitate swallowing of the tablet.
One blood sample was drawn before dosing, and additional samples were drawn at predefined time points after dosing for up to 240 hours, such as up to 10 hours, to adequately cover the full plasma concentration-time absorption profile of the test substance. For each blood sample time point, approximately 0.8 mL of whole blood was collected in a 1.5 mL EDTA-coated tube, which was gently turned to mix the sample with EDTA. Blood samples were collected in EDTA buffer (8 mM) and then centrifuged at 4° C. 2000 g for 10 minutes. Plasma was pipetted into Micronic tubes on dry ice, and kept at −20° C. or lower until analysis. Blood samples were taken as appropriate, for example from a venflon in the cephalic vein in the front leg for the first 2 hours and then with syringe from the jugular vein for the rest of the time points. The first few drops were allowed to drain from the venflon to avoid heparin saline from the venflon in the sample.
All blood samples were collected into test tubes containing EDTA for stabilisation and kept on ice until centrifugation. Plasma was separated from whole blood by centrifugation and the plasma was stored at −20° C. or lower until analysis.
The plasma was analysed for test substance using LC-MS (Liquid Chromatography-Mass Spectrometry) as known to the person skilled in the art. […] RP-HPLC separation was achieved using a linear gradient of 1:1 acetonitrile/methanol in 1% aqueous formic acid using either: a Phenomenex Onyx Monolithic C18 column (50×2.0 mm) and a flow rate of 0.8 mL/min at 30° C.; or an Agilent Poroshell 120 SB-C18 column (50×2.1 mm, 2.7 μm) at a flow rate of 0.4 mL/min at 60° C. The mass spectrometer was operated in either positive ionization SIM mode or positive ionization PRM mode.
For each individual animal, a plasma concentration-time profile was analysed by a non-compartmental model in Pharsight Phoenix WinNonLin ver.

`CC[C@H](C)[C@H](NC(=O)[C@H](Cc1ccccc1)NC(=O)[C@H](CCC(=O)O)NC(=O)[C@H](CCC(N)=O)NC(=O)[C@H](C)NC(=O)[C@H](C)NC(=O)[C@H](CCC(N)=O)NC(=O)[C@H](CCCCNC(=O)[C@@H](N)CCCCNC(=O)[C@@H](N)CCCCNC(=O)CC[C@H](NC(=O)CCCCCCCCCCCCCCCCC(=O)O)C(=O)O)NC(=O)[C@H](CCC(=O)O)NC(=O)[C@H](CC(C)C)NC(=O)[C@H](CC(C)C)NC(=O)[C@@H](NC(=O)[C@H](CO)NC(=O)[C@H](Cc1ccc(O)cc1)NC(=O)[C@H](CC(=O)O)NC(=O)[C@H](CO)NC(=O)[C@@H](NC(=O)[C@H](Cc1ccccc1)NC(=O)[C@@H](NC(=O)CNC(=O)[C@H](CCC(=O)O)NC(=O)C(C)(C)NC(=O)[C@@H](N)Cc1ccc(O)cc1)[C@@H](C)O)[C@@H](C)O)[C@@H](C)CC)C(=O)N[C@@H](CC(N)=O)C(=O)N[C@@H](Cc1c[nH]c2ccccc12)C(=O)N[C@@H](CC(C)C)C(=O)N[C@@H](CC(C)C)C(=O)N[C@@H](C)C(=O)NCC(=O)NCC(=O)N1CCC[C@H]1C(=O)N[C@@H](CO)C(=O)N[C@@H](CO)C(=O)NCC(=O)N[C@@H](C)C(=O)N1CCC[C@H]1C(=O)N1CCC[C@H]1C(=O)N1CCC[C@H]1C(=O)N[C@@H](CO)C(=O)O` [Compound No. 24] (H-Y[Aib]EGTFTSDYSILLEK([εLys-εLys-γGlu-C18 diacid])QAAQEFINWLLAGGPSSGAPPPS-OH; N-terminus assumed): the AUC/Dose worked out at 16.4 kg·h/L. Under `CC[C@H](C)[C@H](NC(=O)[C@H](Cc1ccccc1)NC(=O)[C@H](CCC(=O)O)NC(=O)[C@H](Cc1c[nH]cn1)NC(=O)[C@H](C)NC(=O)[C@H](C)NC(=O)[C@H](CCC(N)=O)NC(=O)[C@H](CCCCNC(=O)[C@@H](N)CCCCNC(=O)[C@@H](N)CCCCNC(=O)CC[C@H](NC(=O)CCCCCCCCCCCCCCCCC(=O)O)C(=O)O)NC(=O)[C@H](CCC(=O)O)NC(=O)[C@H](CC(C)C)NC(=O)[C@H](CC(C)C)NC(=O)[C@@H](NC(=O)[C@H](CO)NC(=O)[C@H](Cc1ccc(O)cc1)NC(=O)[C@H](CC(=O)O)NC(=O)[C@H](CO)NC(=O)[C@@H](NC(=O)[C@H](Cc1ccccc1)NC(=O)[C@@H](NC(=O)CNC(=O)[C@H](CCC(=O)O)NC(=O)C(C)(C)NC(=O)[C@@H](N)Cc1ccc(O)cc1)[C@@H](C)O)[C@@H](C)O)[C@@H](C)CC)C(=O)N[C@@H](CCC(=O)O)C(=O)N[C@@H](Cc1c[nH]c2ccccc12)C(=O)N[C@@H](CC(C)C)C(=O)N[C@@H](CC(C)C)C(=O)N[C@@H](C)C(=O)NCC(=O)NCC(=O)N1CCC[C@H]1C(=O)N[C@@H](CO)C(=O)N[C@@H](CO)C(=O)NCC(=O)N[C@@H](C)C(=O)N1CCC[C@H]1C(=O)N1CCC[C@H]1C(=O)N1CCC[C@H]1C(=O)N[C@@H](CO)C(=O)O` [Compound No. 30] (H-Y[Aib]EGTFTSDYSILLEK([εLys-εLys-γGlu-C18 diacid])QAAHEFIEWLLAGGPSSGAPPPS-OH; N-terminus assumed) stands 6.5 kg·h/L; under `CC[C@H](C)[C@H](NC(=O)[C@H](Cc1ccccc1)NC(=O)[C@H](CCC(=O)O)NC(=O)[C@H](CCC(N)=O)NC(=O)[C@H](C)NC(=O)[C@H](C)NC(=O)[C@H](CCC(N)=O)NC(=O)[C@H](CCCCNC(=O)[C@@H](N)CCCCNC(=O)[C@@H](N)CCCCNC(=O)CC[C@H](NC(=O)CCCCCCCCCCCCCCCCC(=O)O)C(=O)O)NC(=O)[C@H](CCC(=O)O)NC(=O)[C@H](CC(C)C)NC(=O)[C@H](CC(C)C)NC(=O)[C@@H](NC(=O)[C@H](CO)NC(=O)[C@H](Cc1ccc(O)cc1)NC(=O)[C@H](CC(=O)O)NC(=O)[C@H](CO)NC(=O)[C@@H](NC(=O)[C@H](Cc1ccccc1)NC(=O)[C@@H](NC(=O)CNC(=O)[C@H](CCC(=O)O)NC(=O)C(C)(C)NC(=O)[C@@H](N)Cc1ccc(O)cc1)[C@@H](C)O)[C@@H](C)O)[C@@H](C)CC)C(=O)N[C@@H](CCC(=O)O)C(=O)N[C@@H](Cc1c[nH]c2ccccc12)C(=O)N[C@@H](CC(C)C)C(=O)N[C@@H](CC(C)C)C(=O)N[C@@H](C)C(=O)NCC(=O)NCC(=O)N1CCC[C@H]1C(=O)N[C@@H](CO)C(=O)N[C@@H](CO)C(=O)NCC(=O)N[C@@H](C)C(=O)N1CCC[C@H]1C(=O)N1CCC[C@H]1C(=O)N1CCC[C@H]1C(=O)N[C@@H](CO)C(=O)O` [Compound No. 29] (H-Y[Aib]EGTFTSDYSILLEK([εLys-εLys-γGlu-C18 diacid])QAAQEFIEWLLAGGPSSGAPPPS-OH), 16.6** kg*h/L; under `CC[C@H](C)[C@H](NC(=O)[C@H](Cc1ccccc1)NC(=O)[C@H](CCC(=O)O)NC(=O)[C@H](CCCNC(=N)N)NC(=O)[C@H](C)NC(=O)[C@H](C)NC(=O)[C@H](CCC(N)=O)NC(=O)[C@H](CCCCNC(=O)[C@@H](N)CCCCNC(=O)[C@@H](N)CCCCNC(=O)CC[C@H](NC(=O)CCCCCCCCCCCCCCCCC(=O)O)C(=O)O)NC(=O)[C@H](CCC(=O)O)NC(=O)[C@H](CC(C)C)NC(=O)[C@H](CC(C)C)NC(=O)[C@@H](NC(=O)[C@H](CO)NC(=O)[C@H](Cc1ccc(O)cc1)NC(=O)[C@H](CC(=O)O)NC(=O)[C@H](CO)NC(=O)[C@@H](NC(=O)[C@H](Cc1ccccc1)NC(=O)[C@@H](NC(=O)CNC(=O)[C@H](CCC(=O)O)NC(=O)C(C)(C)NC(=O)[C@@H](N)Cc1ccc(O)cc1)[C@@H](C)O)[C@@H](C)O)[C@@H](C)CC)C(=O)N[C@@H](CCC(=O)O)C(=O)N[C@@H](Cc1c[nH]c2ccccc12)C(=O)N[C@@H](CC(C)C)C(=O)N[C@@H](CC(C)C)C(=O)N[C@@H](C)C(=O)NCC(=O)NCC(=O)N1CCC[C@H]1C(=O)N[C@@H](CO)C(=O)N[C@@H](CO)C(=O)NCC(=O)N[C@@H](C)C(=O)N1CCC[C@H]1C(=O)N1CCC[C@H]1C(=O)N1CCC[C@H]1C(=O)N[C@@H](CO)C(=O)O` [Compound No. 31] (H-Y[Aib]EGTFTSDYSILLEK([εLys-εLys-γGlu-C18 diacid])QAAREFIEWLLAGGPSSGAPPPS-OH; N-terminus assumed), 17.9** kg*h/L.
